Measurements taken from PubChem BioAssay AID1963983 (Molecular Pharmacology Branch, DTP, NCI, 2024).

Tested on: 186277-243-T-J2-PDC multi-cell spheroid viability
Experiment: Anticancer human tumor 186277-243-T-J2-PDC patient-derived colon adenocarcinoma cell line growth inhibition [PI3K]
Settings: for viability, T/C: stronger effect = lower value
Procedure, shortened: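 Targeted small molecules plus PI3K inhibitors, half-log dose series from Cmax (default top 10 microM), were applied to heterotypic spheroids of cancer cells with HUVEC and MSCs. Viability indicated growth inhibition.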

[1] = curve of first compound, second compound 0.0316 µM
[2] = curve of first compound, second compound 0.1 µM
[3] = curve of first compound, second compound 0.316 µM
[4] = curve of first compound, second compound 1 µM
[5] = curve of first compound, second compound 3.16 µM
[6] = curve of first compound, second compound 10 µM
[7] = second compound 0.0316 µM, first compound 0.0316 µM
[8] = second compound 0.0316 µM, first compound 0.1 µM
[9] = second compound 0.0316 µM, first compound 0.316 µM
[10] = second compound 0.0316 µM, first compound 1 µM
[11] = second compound 0.0316 µM, first compound 3.16 µM
[12] = second compound 0.0316 µM, first compound 10 µM
[13] = second compound 0.1 µM, first compound 0.0316 µM
[14] = second compound 0.1 µM, first compound 0.1 µM
[15] = second compound 0.1 µM, first compound 0.316 µM
[16] = second compound 0.1 µM, first compound 1 µM
[17] = second compound 0.1 µM, first compound 3.16 µM
[18] = second compound 0.1 µM, first compound 10 µM
[19] = second compound 0.316 µM, first compound 0.0316 µM
[20] = second compound 0.316 µM, first compound 0.1 µM
[21] = second compound 0.316 µM, first compound 0.316 µM
[22] = second compound 0.316 µM, first compound 1 µM
[23] = second compound 0.316 µM, first compound 3.16 µM
[24] = second compound 0.316 µM, first compound 10 µM
[25] = second compound 1 µM, first compound 0.0316 µM
[26] = second compound 1 µM, first compound 0.1 µM
[27] = second compound 1 µM, first compound 0.316 µM
[28] = second compound 1 µM, first compound 1 µM
[29] = second compound 1 µM, first compound 3.16 µM
[30] = second compound 1 µM, first compound 10 µM
[31] = second compound 3.16 µM, first compound 0.0316 µM
[32] = second compound 3.16 µM, first compound 0.1 µM
[33] = second compound 3.16 µM, first compound 0.316 µM
[34] = second compound 3.16 µM, first compound 1 µM
[35] = second compound 3.16 µM, first compound 3.16 µM
[36] = second compound 3.16 µM, first compound 10 µM
[37] = second compound 10 µM, first compound 0.0316 µM
[38] = second compound 10 µM, first compound 0.1 µM
[39] = second compound 10 µM, first compound 0.316 µM
[40] = second compound 10 µM, first compound 1 µM
[41] = second compound 10 µM, first compound 3.16 µM
[42] = second compound 10 µM, first compound 10 µM
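Further: spheroids exposed to compounds for seven days before viability reading.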
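Wherever viability, T/C is given: 100% = DMSO vehicle control viability.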

`CC(C)NCC(C(=O)N1CCN(c2ncnc3c2C(C)CC3O)CC1)c1ccc(Cl)cc1` (stereo not drawn) + Cc1nc(NC(=O)N2CCCC2C(N)=O)sc1-c1ccnc(C(C)(C)C(F)(F)F)c1 showed an IC50 [1] of 893 nM, an IC50 [2] of 603 nM and an IC50 [3] of 544 nM. For the same compound, the IC50 [4] was 262 nM, the IC50 [5] was 59.7 nM and the IC50 [6] was < 31.6 nM. The viability, T/C [7] was 115%, the viability, T/C [8] was 93% and the viability, T/C [9] was 59%. The viability, T/C [10] was 54.1%, the viability, T/C [11] was 31.6% and the viability, T/C [12] was 22.5%. For the same compound, the viability, T/C [13] was 90.3%, the viability, T/C [14] was 92.4% and the viability, T/C [15] was 58.6%. It also gave a viability, T/C [16] of 43.9%, a viability, T/C [17] of 23.5% and a viability, T/C [18] of 23.9%. The viability, T/C [19] was 94.5%, the viability, T/C [20] was 80.2% and the viability, T/C [21] was 64%. It also gave a viability, T/C [22] of 36.5%, a viability, T/C [23] of 18% and a viability, T/C [24] of 14.3%. For the same compound, the viability, T/C [25] was 92.5%, the viability, T/C [26] was 74.8% and the viability, T/C [27] was 45.4%. For the same compound, the viability, T/C [28] was 24.7%, the viability, T/C [29] was 21.4% and the viability, T/C [30] was 16.3%. For the same compound, the viability, T/C [31] was 56.3%, the viability, T/C [32] was 47% and the viability, T/C [33] was 25.3%. The viability, T/C [34] was 20.3%, the viability, T/C [35] was 10% and the viability, T/C [36] was 5.7%. It also gave a viability, T/C [37] of 14.2%, a viability, T/C [38] of 13.1% and a viability, T/C [39] of 7.49%. For the same compound, the viability, T/C [40] was 9.25%, the viability, T/C [41] was 5.71% and the viability, T/C [42] was 3.29%.

For `CC1(C)CCC(Nc2ncc(C(F)(F)F)c(-c3c[nH]c4c(P(C)(C)=O)c(C#N)ccc34)n2)CN1` (stereo not drawn), the viability, T/C (compound 0.0316 µM) was 75.1% [middle of 4 runs], the viability, T/C (compound 0.1 µM) was 55.2% [middle of 4 runs] and the viability, T/C (compound 0.316 µM) was 50.5% [middle of 4 runs]. The viability, T/C (compound 1 µM) was 59.2% [middle of 4 runs], the viability, T/C (compound 3.16 µM) was 62.6% [middle of 4 runs] and the viability, T/C (compound 10 µM) was 0.77% [middle of 4 runs]. For the same compound, the IC50 (curve of compound) was 3.64 µM [middle of 4 runs].

In the case of `C[C@@H](NC(=O)c1ncnc(N)c1Cl)c1ncc(C(=O)Nc2cc(C(F)(F)F)c(Cl)cn2)s1` + Cc1nc(NC(=O)N2CCCC2C(N)=O)sc1-c1ccnc(C(C)(C)C(F)(F)F)c1, the IC50 [1] is reported as > 10000 nM, the IC50 [2] is reported as > 10000 nM and the IC50 [3] is reported as 8100 nM. For the same compound, the IC50 [4] was 4320 nM, the IC50 [5] was 382 nM and the IC50 [6] was < 31.6 nM. The viability, T/C [7] was 87.8%, the viability, T/C [8] was 78.3% and the viability, T/C [9] was 101%. The viability, T/C [10] was 99.5%, the viability, T/C [11] was 102% and the viability, T/C [12] was 78.4%. For the same compound, the viability, T/C [13] was 92.9%, the viability, T/C [14] was 90.8% and the viability, T/C [15] was 93.9%. It also gave a viability, T/C [16] of 108%, a viability, T/C [17] of 99.2% and a viability, T/C [18] of 72%. It also gave a viability, T/C [19] of 104%, a viability, T/C [20] of 107% and a viability, T/C [21] of 105%. For the same compound, the viability, T/C [22] was 88.1%, the viability, T/C [23] was 85.8% and the viability, T/C [24] was 42.1%. The viability, T/C [25] was 103%, the viability, T/C [26] was 88.5% and the viability, T/C [27] was 102%. It also gave a viability, T/C [28] of 91.2%, a viability, T/C [29] of 62.8% and a viability, T/C [30] of 15.7%. The viability, T/C [31] was 77.8%, the viability, T/C [32] was 65.8% and the viability, T/C [33] was 54.9%. It also gave a viability, T/C [34] of 33.3%, a viability, T/C [35] of 12.9% and a viability, T/C [36] of 6%. For the same compound, the viability, T/C [37] was 18.7%, the viability, T/C [38] was 18.9% and the viability, T/C [39] was 14.2%. For the same compound, the viability, T/C [40] was 4.89%, the viability, T/C [41] was 5.43% and the viability, T/C [42] was 0.25%.

`CC(Cn1ccc(-c2ccc(C#N)c(Cl)c2)n1)NC(=O)c1cc(C(C)O)[nH]n1` (stereo not drawn) + Cc1nc(NC(=O)N2CCCC2C(N)=O)sc1-c1ccnc(C(C)(C)C(F)(F)F)c1 was tested, and the IC50 [1] was > 10000 nM, the IC50 [2] was > 10000 nM and the IC50 [3] was > 10000 nM. For the same compound, the IC50 [4] was > 10000 nM, the IC50 [5] was > 10000 nM and the IC50 [6] was < 31.6 nM. The viability, T/C [7] was 99.2%, the viability, T/C [8] was 96.7% and the viability, T/C [9] was 98.5%. It also gave a viability, T/C [10] of 93%, a viability, T/C [11] of 116% and a viability, T/C [12] of 107%. The viability, T/C [13] was 112%, the viability, T/C [14] was 103% and the viability, T/C [15] was 88.6%. The viability, T/C [16] was 109%, the viability, T/C [17] was 107% and the viability, T/C [18] was 122%. For the same compound, the viability, T/C [19] was 99.7%, the viability, T/C [20] was 97.6% and the viability, T/C [21] was 103%. For the same compound, the viability, T/C [22] was 116%, the viability, T/C [23] was 105% and the viability, T/C [24] was 97.5%. It also gave a viability, T/C [25] of 103%, a viability, T/C [26] of 92.8% and a viability, T/C [27] of 86%. For the same compound, the viability, T/C [28] was 97.9%, the viability, T/C [29] was 86.8% and the viability, T/C [30] was 88.3%. It also gave a viability, T/C [31] of 56.5%, a viability, T/C [32] of 60.2% and a viability, T/C [33] of 54.2%. The viability, T/C [34] was 58.9%, the viability, T/C [35] was 50.7% and the viability, T/C [36] was 54.8%. The viability, T/C [37] was 21.6%, the viability, T/C [38] was 14.2% and the viability, T/C [39] was 18.5%. The viability, T/C [40] was 17.1%, the viability, T/C [41] was 15.8% and the viability, T/C [42] was 12.7%.
